How the values were obtained:
catalepsy = assay: Bar test (catalepsy); assay type: in vivo, mice; settings: Δ^9-THC 10 mg/kg; 30, 60, and 90 min after injection
Description: The classic Morris water maze and fear conditioning tests were performed to determine spatial and fear memory as described previously (Chen et al., 2012). The ‘open field’ test was conducted to detect the locomotor activity and the bar test was used to detect catalepsy (Egashira et al., 2007).
The cataleptic effect of Δ^9-THC was detected using the bar test as described previously with modification (Egashira et al., 2007; Pertwee and Wickens, 1991). Briefly, the front paws of each mouse were placed on an elevated rod (0.5 cm in diameter and 3.5 cm from the bottom of the test box) and the duration of time that the mouse kept motionless was determined. The test was conducted 30, 60, and 90 min after Δ^9-THC injection. Celebrex was injected 30 min prior to Δ^9-THC injection.

neprilysin (NEP) = assay: Neprilysin expression in 5XFAD APP transgenic mice (immunoblot); assay type: in vivo; settings: TG mice
Description: Western blot assay was conducted using specific antibodies (Table S1) to determine expressions of COX-2, glutamate receptor subunits, PSD-95, G-protein subunits, phosphoproteins, BACE1 and neprilysin in hippocampal tissue and/or in cultured cells as described previously (Chen et al., 2012). Surface biotinylation assays were performed to determine surface expression of glutamate receptor subunits in hippocampal slices as described previously (Fan et al., 2010).

[1] = tested on: dendritic spines of CA1 pyramidal neurons; assay: Two-photon imaging of dendritic spines in CA1 pyramidal neurons; assay type: in vivo, mice; settings: repeated Δ^9-THC exposure; Thy1-GFP mice
Description: Morphology of dendritic spines in hippocampal CA1 pyramidal neurons was determined in GFP-expressing transgenic mice using a two-photon laser scanning microscope as described previously (Chen et al., 2012). Shape, size, and density of spines were measured from the three-dimensional reconstructions using NeuronStudio Version 0.9.92.
Morphology of dendritic spines in hippocampal CA1 pyramidal neurons was determined in GFP-expressing transgenic mice treated with vehicle, Δ^9-THC or NS398+Δ^9-THC using a two-photon laser scanning microscope (Chameleon hands-free ultrafast Ti: sapphire laser with an Olympus scan head) with Olympus FLUOVIEW 300 software (Chen et al., 2012). Shape (thin, mushroom, or stubby), size, density, and volume of spines were measured from the three-dimensional reconstructions (Z stacks: 1μ step for the whole cell and 0.1μ step for a segment of dendrites) using AutoQuant X2 or 3D deconvolution plugin of Image J (http://bigwww.epfl.ch/algorithms/deconvolutionlab) and NeuronStudio (for 3D reconstruction of imaged dendritic spines, Version 0.9.92; http://research.mssm.edu/cnic/tools-ns.html, CNIC, Mount Sinai School of Medicine). […] The following parameters were used in analyzing and quantifying spines using NeuronStudio: Voxel size was set as 0.029*0.029*0.3 μm. […]

CREB = assay: Phosphorylation of hippocampal CREB; settings: WT mice; Δ^9-THC for 7 days
degenerated neurons = assay: Degenerated neurons by Fluoro-Jade C staining in 5XFAD APP transgenic mice; assay type: in vivo; settings: Δ^9-THC 3 mg/kg once daily for 4 weeks
Description: Degenerated neurons were detected using Fluoro-Jade C (FJC), which is an anionic dye that specifically stains the soma and neurites of degenerating neurons and thus is unique as a neurodegenerative marker. Cryostat cut sections were incubated in the solution with FJC (0.0001% solution, EMD Millipore) and DAPI (0.5 μg/ml) for 10 min, followed by 3×1-min wash with distilled water. Slices were dried naturally at room temperature without light. The images were taken using a Zeiss deconvolution microscope with SlideBook 5.0 software as described previously (Chen et al., 2012).

COX-2 = COX-2 expression in neuronal and astroglial cell-enriched cultures; assay type: cell-based; settings: assayed 12 hr after treatment
Description: Relative pure hippocampal neurons (astroglial cells<2%), mixed neurons and astroglial cells (astroglial cells ˜10%), and astroglial cell-enriched (astroglial cells>95%), and NG108-15 cell cultures were made as described previously (Sang et al, 2005; Zhang and Chen, 2008).
Primary hippocampal neurons (astroglial cells<2%), mixed neurons and astroglial cells (astroglial cells ˜10%), astroglial cell-enriched (astroglial cells>95%) and NG108-15 cells were cultured as described previously (Sang et al, 2005; Zhang and Chen, 2008). The extent of neurons and astroglial cells in culture were controlled by different treatments, which was estimated by using immunostaining with NeuN, a neuronal marker, glial fibrillary acidic protein (GFAP), an astrocytic marker, and OX-42, a microglial marker, in conjunction with DAPI staining.

NF-κB = NF-κB phosphorylation in NG108-15 cells

SMILES: CCCCCc1cc(O)c2c(c1)OC(C)(C)[C@@H]1CCC(C)=C[C@@H]21 [Δ^9-THC, Δ^9-tetrahydrocannabinol]
- cataleptic effect (catalepsy): cataleptic and locomotor depressive effects
- expression of neprilysin (NEP) (neprilysin (NEP)): increases expression of neprilysin (NEP)
- density of dendritic spines [1]: significantly reduced density of dendritic spines of CA1 pyramidal neurons
- phosphorylation of hippocampal CREB (CREB): reduced expression of glutamate receptor subunits and phosphorylation of CREB
- numbers of degenerated neurons (degenerated neurons; absence of Celebrex): significantly reduced
- numbers of degenerated neurons (degenerated neurons; presence of Celebrex 1 mg/kg): significantly reduced
- COX-2 expression in neuronal and astroglial cell-enriched cultures (COX-2): CB1R-dependent increase in COX-2 expression both in neuronal and astroglial cell-enriched cultures
- NF-κB phosphorylation (NF-κB): induced NF-κB phosphorylation

Source: patent US9833433B1, “Compositions, methods of use, and methods of treatment” (priority 2013, dated 2017)
